Experimental findings from US9382276B2, “Water-soluble O-carbonyl phosphoramidate prodrugs for therapeutic administration” (MicuRx Pharmaceuticals, Inc., priority 2014, dated 2016) are described below.

SMILES strings stand for the structures. Values after ≈ are worked out from the molar mass of the structure shown.

One data set is described as follows: physchem. Conditions: water or conventional aqueous solutions, thermodynamic from solid.
The conditions of data set [1]: pH range of about 3-9.
The nature of the next data set: in vivo. Conditions: rat, iv, 10 mg/kg.
In data set [2] the test system is Staphylococcus aureus strain SAU1018. The data set can be described thus: mouse peritonitis infection model (survival, ED50). Conditions: parent drug control in same test, in 20% aqueous beta-hydroxypropylcyclodextrin (HPCD) formulation, read-out: ED50 (effective dose for survival of 50% of animals). The data set is classed as in vivo.

As to `O=C1C=CN(c2c(F)cc(N3C[C@H](CNc4ccon4)OC3=O)c(F)c2F)CC1` [MRX-I], the solubility in “physchem” was ~250 µg/mL (≈ 612 µM). Further, the “pH dependence of solubility in water” value in data set [1] is “virtually pH-independent”. The AUC in the data set “in vivo” was ~25400 ng·h/mL. In addition, the ED50 in data set [2] was determined as 10 mg/kg.

The solubility is the dissolved amount per volume that the medium holds. Read a low solubility as little dissolved substance. For orientation: AUC means the area under the concentration-time curve, a measure of exposure. High values mean more exposure, low ones less exposure. As usually defined, the ED50 is the dose at which the effect has come halfway, by size or by number of responders.
